Assays:
Type in all cases: in vivo
Echinochloa crus-galli [1] = experiment: Post-emergence herbicidal action against ECHCG; conditions: 20 g/ha, visual assessment about 3 weeks after treatment
Method: (§1) Seeds of monocotyledonous and dicotyledonous weed and crop plants are laid out in sandy loam soil in wood-fiber pots, covered with soil and cultivated in a greenhouse under good growth conditions. 2 to 3 weeks after sowing, the test plants are treated at the one-leaf stage. The compounds of the invention, formulated in the form of wettable powders (WP) or as emulsion concentrates (EC), are then sprayed onto the green parts of the plants in the form of an aqueous suspension or emulsion at a water application rate equivalent to 600 to 800 l/ha, with addition of 0.2% wetting agent. After the test plants have been left to stand in the greenhouse under optimal growth conditions for about 3 weeks, the action of the preparations is assessed visually in comparison to untreated controls (herbicidal action in percent (%): 100% activity=the plants have died, 0% activity=like control plants). […] The tables below illustrate, in an illustrative manner, the post-emergence herbicidal action of the compounds of the invention, the herbicidal activity being stated in percent.

Setaria viridis [2] = experiment: Post-emergence herbicidal action against SETVI; conditions: visual assessment about 3 weeks after treatment
Method: as §1

Abutilon theophrasti [3] = experiment: Pre-emergence herbicidal action against ABUTH; conditions: visual score after 3 weeks vs untreated controls
Source text: (§2) Seeds of monocotyledonous and dicotyledonous weed plants and crop plants are laid out in sandy loam soil in wood-fiber pots and covered with soil. The compounds of the invention, formulated in the form of wettable powders (WP) or as emulsion concentrates (EC), are then applied to the surface of the covering soil in the form of an aqueous suspension or emulsion at a water application rate equivalent to 600 to 800 l/ha, with addition of 0.2% wetting agent. After the treatment, the pots are placed in a greenhouse and kept under good growth conditions for the trial plants. The damage to the test plants is scored visually after a test period of 3 weeks by comparison with untreated controls (herbicidal activity in percent (%): 100% activity=the plants have died, 0% activity=like control plants). […] The tables below illustrate, in an illustrative manner, the post-emergence herbicidal action of the compounds of the invention, the herbicidal activity being stated in percent.

Setaria viridis [4] = experiment: Pre-emergence herbicidal action against SETVI; conditions: 80 g/ha
Source text: as §2

Viola tricolor [5] = experiment: Post-emergence herbicidal action against VIOTR
Method: as §1

Amaranthus retroflexus [6] = experiment: Post-emergence herbicidal action against AMARE; conditions: visual assessment about 3 weeks after treatment
Method: as §1

Echinochloa crus-galli [7] = experiment: Pre-emergence herbicidal action against ECHCG; conditions: 80 g/ha; visual score after 3 weeks vs untreated controls
Source text: as §2

Amaranthus retroflexus [8] = experiment: Pre-emergence herbicidal action against AMARE; conditions: visual score after 3 weeks vs untreated controls
Source text: as §2

Alopecurus myosuroides [9] = experiment: Pre-emergence herbicidal action against ALOMY; conditions: 80 g/ha; visual score after 3 weeks vs untreated controls
Source text: as §2

Abutilon theophrasti [10] = experiment: Post-emergence herbicidal action against ABUTH
Method: as §1

Veronica persica [11] = experiment: Post-emergence herbicidal action against VERPE; conditions: 20 g/ha, visual assessment about 3 weeks after treatment
Method: as §1

Pharbitis purpurea = experiment: Post-emergence herbicidal action against PHBPU; conditions: 20 g/ha, visual assessment about 3 weeks after treatment
Method: as §1

Matricaria inodora [12] = experiment: Pre-emergence herbicidal action against MATIN; conditions: visual score after 3 weeks vs untreated controls
Source text: as §2

Viola tricolor [13] = experiment: Pre-emergence herbicidal action against VIOTR
Source text: as §2

Digitaria sanguinalis = experiment: Pre-emergence herbicidal action against DIGSA
Source text: as §2

Matricaria inodora [14] = experiment: Post-emergence herbicidal action against MATIN; conditions: 20 g/ha, visual assessment about 3 weeks after treatment
Method: as §1

Veronica persica [15] = experiment: Pre-emergence herbicidal action against VERPE; conditions: 80 g/ha
Source text: as §2

Alopecurus myosuroides [16] = experiment: Post-emergence herbicidal action against ALOMY; conditions: 20 g/ha
Method: as §1

Compound | Post-emergence action against ECHCG in % (Echinochloa crus-galli [1]) | Post-emergence action against SETVI in % (Setaria viridis [2]; 20 g/ha) | Pre-emergence action against ABUTH (Abutilon theophrasti [3]; 80 g/ha) | Pre-emergence action against SETVI (Setaria viridis [4]) | Post-emergence action against VIOTR in % (Viola tricolor [5]; 20 g/ha) | Post-emergence action against AMARE in % (Amaranthus retroflexus [6]; 5 g/ha) | Post-emergence action against AMARE in % (Amaranthus retroflexus [6]; 20 g/ha) | Pre-emergence action against ECHCG (Echinochloa crus-galli [7]) | Pre-emergence action against AMARE (Amaranthus retroflexus [8]; 20 g/ha) | Pre-emergence action against AMARE (Amaranthus retroflexus [8]; 80 g/ha) | Pre-emergence action against ALOMY (Alopecurus myosuroides [9]) | Post-emergence action against ABUTH (Abutilon theophrasti [10]; 5 g/ha) | Post-emergence action against ABUTH (Abutilon theophrasti [10]; 20 g/ha) | Post-emergence action against VERPE in % (Veronica persica [11]) | Post-emergence action against PHBPU in % (Pharbitis purpurea) | Pre-emergence action against MATIN (Matricaria inodora [12]; 20 g/ha) | Pre-emergence action against MATIN (Matricaria inodora [12]; 80 g/ha) | Pre-emergence action against ABUTH (Abutilon theophrasti [3]; 20 g/ha) | Pre-emergence action against VIOTR (Viola tricolor [13]; 80 g/ha) | Pre-emergence action against DIGSA (Digitaria sanguinalis; 80 g/ha) | also measured
Cc1c(C(=O)Nc2nnnn2C)ccc(C(F)F)c1C(=O)N(C)C [Example 1-50] | 80% | 80% | 100% | 80% | 80% | 90% | 100% | 80% | 90% | 100% | 80% | 80% | 90% | 80% | 80% | 80% | 90% | – | – | – | –
Cn1nnnc1NC(=O)c1ccc(C(F)(F)F)c(C(=O)N(C2CC2)C2CC2)c1Cl [Example 1-144] | – | – | 100% | – | – | 90% | 90% | – | 90% | 100% | – | – | – | – | – | 90% | 100% | 80% | 100% | 100% | Pre-emergence action against VIOTR (Viola tricolor [13]; 20 g/ha): 80%
CCOC(=O)[C@@H]1CCCN1C(=O)c1c(C(F)F)ccc(C(=O)Nc2nnnn2C)c1Cl [Example 1-402] | – | – | – | – | – | – | 90% | – | – | 100% | – | – | – | – | – | – | 90% | – | – | – | –
CCn1nnnc1NC(=O)c1ccc(C(F)(F)F)c(C(=O)N(C2CC2)C2CC2)c1Cl [Example 2-144] | – | – | 100% | – | – | 90% | 90% | – | – | 100% | – | – | – | – | – | – | 100% | 90% | 100% | – | Post-emergence action against MATIN in % (Matricaria inodora [14]): 80%
CCOC(=O)[C@@H]1CCCN1C(=O)c1c(C(F)(F)F)ccc(C(=O)Nc2nnnn2C)c1Cl [Example 1-400] | – | – | 100% | – | – | – | – | – | 90% | 100% | – | – | – | – | – | – | 90% | – | – | 100% | Pre-emergence action against DIGSA (Digitaria sanguinalis; 20 g/ha): 100%
CCN(C)C(=O)c1c(C(F)F)ccc(C(=O)Nc2nnnn2C)c1C [Example 1-51] | 80% | 80% | 100% | 80% | 90% | 100% | 100% | 90% | 80% | 100% | 80% | 80% | 80% | 80% | 90% | – | 90% | – | 90% | – | Post-emergence action against SETVI in % (Setaria viridis [2]; 5 g/ha): 80%; Post-emergence action against VIOTR in % (Viola tricolor [5]; 5 g/ha): 80%; Pre-emergence action against VERPE (Veronica persica [15]): 80%; Post-emergence action against ALOMY (Alopecurus myosuroides [16]): 80%; Post-emergence action against MATIN in % (Matricaria inodora [14]): 80%

Source: patent publication US12599136B2, “Substituted isophthalic acid diamides and their use as herbicides” (Bayer Aktiengesellschaft, priority 2020, dated 2026)
